In patent US11712434B2, “Compound having anti-cancer effect, and preparation method therefor and use thereof” (3D MEDICINES (BEIJING) CO., LTD., priority 2016, dated 2023):

Experiments:
Assay in all cases: Cell proliferation assay (Alamar Blue)
Assay type in all cases: cell-based
Hep3B2.1-7 = Hep3B2.1-7 liver cancer cell line, 6 days culture
How it was run: (§1)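 Resazurin-based viability: cells grown 6 d with compound at 37 °C, 5% CO2, then AlamarBlue 1-4 h, Ex 560/Em 590 nm. Dose range 9 points, 3.16-fold, top 100 or 30 μM. IC50 by nonlinear regression.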

HUH7 = HUH7 liver cancer cell line, 6 days culture
How it was run: as §1

SNU354 = SNU354 liver cancer cell line, 6 days culture
How it was run: as §1

NCI-H1703 = NCI-H1703 (lung cancer cells), 6 days culture
How it was run: as §1

HuTu80 = HuTu80 tumor cell line, 6 days culture
How it was run: as §1

SNU475 = SNU475 liver cancer cell line, 6 days culture
How it was run: as §1

SNU449 = SNU449 liver cancer cell line, 6 days culture
How it was run: as §1

NCI-H526 = NCI-H526 tumor cell line, 6 days culture
How it was run: as §1

SNU182 = SNU182 liver cancer cell line, 6 days culture
How it was run: as §1

CCRF-CEM = CCRF-CEM tumor cell line, 6 days culture
How it was run: as §1

SK-HEP-1 = SK-HEP-1 liver cancer cell line, 6 days culture
How it was run: as §1

HEPG2 = HEPG2 liver cancer cell line, 6 days culture
How it was run: as §1

NCI-H2170 = NCI-H2170 tumor cell line, 6 days culture
How it was run: as §1

HT1080 = HT1080 tumor cell line, 6 days culture
How it was run: as §1

JHH1 = JHH1 liver cancer cell line, 6 days culture
How it was run: as §1

MFM-223 = MFM-223 tumor cell line, 6 days culture
How it was run: as §1

JHH4 = JHH4 liver cancer cell line, 6 days culture
How it was run: as §1

HT55 = HT55 tumor cell line, 6 days culture
How it was run: as §1

22RV1 = 22RV1 tumor cell line, 6 days culture
How it was run: as §1

HCCLM3 = HCCLM3 tumor cell line, 6 days culture
How it was run: as §1

JHH5 = JHH5 liver cancer cell line, 6 days culture
How it was run: as §1

JHH2 = JHH2 liver cancer cell line, 6 days culture
How it was run: as §1

MG63 = MG63 tumor cell line, 6 days culture
How it was run: as §1

Li-7 = Li-7 liver cancer cell line, 6 days culture
How it was run: as §1

MDA-MB-435S = MDA-MB-435S tumor cell line, 6 days culture
How it was run: as §1

DU145 = DU145 tumor cell line, 6 days culture
How it was run: as §1

Measured: IC50

Cc1ccc(F)c(NC(=O)Nc2ccc(-c3cccc4[nH]nc(NC(=O)CCCCCNC(=O)C[C@H](N)C(=O)N[C@@H](CCC(=O)N[C@@H](CCC(=O)N[C@@H](CCC(=O)N[C@@H](CCC(=O)O)C(=O)O)C(=O)O)C(=O)O)C(=O)O)c34)cc2)c1 [Compound 5]
> 100 µM: Hep3B2.1-7; 144 h | HUH7; Homo sapiens, Huh-7, 144 h | SNU354; Homo sapiens, SNU-354, 144 h | HuTu80; Homo sapiens, 144 h | SNU475; Homo sapiens, SNU-475, 144 h | SNU449; Homo sapiens, SNU-449, 144 h | NCI-H526; Homo sapiens, 144 h | SNU182; Homo sapiens, SNU-182, 144 h | CCRF-CEM; Homo sapiens, 144 h | SK-HEP-1; Homo sapiens, SK-HEP1, 144 h | NCI-H2170; Homo sapiens, 144 h | HT1080; Homo sapiens, HT-1080, 144 h | JHH1; 144 h | MFM-223; Homo sapiens, 144 h | JHH4; JHH-4, 144 h | HT55; Homo sapiens, 144 h | 22RV1; Homo sapiens, 144 h | HCCLM3; Homo sapiens, 144 h | JHH5; 144 h | JHH2; JHH-2, 144 h | MG63; Homo sapiens, MG-63, 144 h | Li-7; 144 h | MDA-MB-435S; Homo sapiens, 144 h | DU145; Homo sapiens, DU-145, 144 h
72.2 µM: HEPG2; Homo sapiens, 144 h
2.81 µM: NCI-H1703; Homo sapiens, 144 h

Cc1ccc(F)c(NC(=O)Nc2ccc(-c3cccc4[nH]nc(NC(=O)CCCCCCCCCCCNC(=O)C[C@H](N)C(=O)N[C@@H](CCC(=O)O)C(=O)O)c34)cc2)c1 [Compound 7]
9.53 µM: HEPG2
> 100 µM: SNU354 | SNU475 | SNU449 | NCI-H526 | SNU182 | CCRF-CEM | SK-HEP-1 | HT1080 | JHH1 | JHH4 | HT55 | 22RV1 | HCCLM3 | JHH5 | JHH2 | MG63 | Li-7 | MDA-MB-435S | DU145
27.7 µM: HuTu80
48 µM: NCI-H2170
40.4 µM: Hep3B2.1-7
88.3 µM: MFM-223
42.2 µM: HUH7
0.11 µM: NCI-H1703

Cc1ccc(F)c(NC(=O)Nc2ccc(-c3cccc4[nH]nc(NC(=O)CCCCCCCCCCCNC(=O)C[C@H](N)C(=O)N[C@@H](CCC(=O)N[C@@H](CCC(=O)N[C@@H](CCC(=O)N[C@@H](CCC(=O)O)C(=O)O)C(=O)O)C(=O)O)C(=O)O)c34)cc2)c1 [Compound 8]
> 100 µM: SNU354; Homo sapiens, SNU-354, 144 h | SNU475; Homo sapiens, SNU-475, 144 h | SNU449; Homo sapiens, SNU-449, 144 h | NCI-H526; Homo sapiens, 144 h | SNU182; Homo sapiens, SNU-182, 144 h | CCRF-CEM; Homo sapiens, 144 h | SK-HEP-1; Homo sapiens, SK-HEP1, 144 h | HT1080; Homo sapiens, HT-1080, 144 h | JHH1; 144 h | MFM-223; Homo sapiens, 144 h | JHH4; JHH-4, 144 h | HT55; Homo sapiens, 144 h | 22RV1; Homo sapiens, 144 h | HCCLM3; Homo sapiens, 144 h | JHH5; 144 h | JHH2; JHH-2, 144 h | MG63; Homo sapiens, MG-63, 144 h | Li-7; 144 h | MDA-MB-435S; Homo sapiens, 144 h | DU145; Homo sapiens, DU-145, 144 h
80.2 µM: Hep3B2.1-7; 144 h
65.4 µM: HUH7; Homo sapiens, Huh-7, 144 h
11.5 µM: HEPG2; Homo sapiens, 144 h
50.6 µM: HuTu80; Homo sapiens, 144 h
75.3 µM: NCI-H2170; Homo sapiens, 144 h
0.19 µM: NCI-H1703; Homo sapiens, 144 h

Cc1ccc(F)c(NC(=O)Nc2ccc(-c3cccc4[nH]nc(NC(=O)CCCCCCCCCCCNC(=O)C[C@H](N)C(=O)N[C@@H](CCC(=O)N[C@@H](CCC(=O)N[C@@H](CCC(=O)N[C@@H](CCC(=O)N[C@@H](CCC(=O)N[C@@H](CCC(=O)N[C@@H](CCC(=O)N[C@@H](CCC(=O)N[C@@H](CCC(=O)O)C(=O)O)C(=O)O)C(=O)O)C(=O)O)C(=O)O)C(=O)O)C(=O)O)C(=O)O)C(=O)O)c34)cc2)c1 [Compound 9]
33.6 µM: HEPG2
> 100 µM: Hep3B2.1-7 | SNU354 | SNU475 | SNU449 | NCI-H526 | SNU182 | CCRF-CEM | SK-HEP-1 | NCI-H2170 | HT1080 | JHH1 | MFM-223 | JHH4 | HT55 | 22RV1 | HCCLM3 | JHH5 | JHH2 | MG63 | Li-7 | MDA-MB-435S | DU145
90.4 µM: HuTu80
88.5 µM: HUH7
0.35 µM: NCI-H1703
